61 compounds from US20220054465A1, “(PYRIDIN-2-YL)AMINE DERIVATIVES AS TGF-BETA R1 (ALK5) INHIBITORS FOR THE TREATMENT OF CANCER” (Nexys Therapeutics, Inc., priority 2018, published 2022) can be followed below.

The assay concerns HEK-Blue TGFβ cell. The assay can be described thus: HEK-Blue TGFβ cellular reporter gene assay (SEAP readout). In kind it is cell-based. Particulars: HEK-Blue TGFβ cells stimulated with TGF-β, 22-23 h incubation, SEAP read at 630 nm. Here is the method: HEK-Blue TGFβ Cellular Reporter Gene Assay:
HEK-Blue TGFβ cell was purchased from Invivogen. Cell suspension of 2.5×10^5 cells/ml was prepared using Test Medium (DMEM containing 0.5% v/v heat-inactivated FBS). TGF-β working solution (6 ng/ml) was obtained through diluting TGF-β stock solution (10 μg/ml) by Test Medium before use. Eight different concentrations of all compounds were obtained by 3× gradient dilution method using TGF-β working solution. Add 100 μl of Test Medium (Vehicle) or test article or TGF-β working solution per well of a flat-bottom 96-well plate. Add 100 μl of HEK-Blue TGF-β cell suspension per well. Incubate the plate at 37° C. in a CO2 incubator for 22-23 h. Add 150 μl of resuspended QUANTI-Blue per well of a new flat-bottom 96-well plate. Add 30 μl of induced HEK-Blue TGF-β cells supernatant. Avoid pipetting at the bottom of wells. Incubate the plate at 37° C. incubator for 30-40 min. Determine secreted embryonic alkaline phosphatase (SEAP) levels using a spectrophotometer at 630 nm.
The inhibition was calculated using the equation: […]

Each structure is given as a SMILES string.

The term IC50 denotes the midpoint of a concentration-inhibition curve. Read a low IC50 as greater potency in that assay. On to `COc1cc(CCc2nn[nH]n2)cc(Nc2cc(Oc3cc(C)c(C)nc3-c3ccccn3)ccn2)c1` [Example 178], for which the IC50 stood at 210 nM.
`Cc1ccc(Oc2ccnc(Nc3cccc(C(C)(C)C(=O)O)c3)c2)c(-c2ccc(C#N)cc2)n1` [Example 97] yielded an IC50 of 200 nM.
`Cc1ccc(Oc2ccnc(Nc3cccc(CCc4nn[nH]n4)c3)c2)c(-c2ccncc2)n1` [Example 54] displayed a half-maximal inhibitory concentration (IC50) of 6390 nM. This IC50 is about 32-fold higher than that of the compound before.
In the case of `Cc1cc(Oc2ccnc(Nc3cccc(OCc4nnn[nH]4)c3)c2)c(-c2ccccn2)nc1C` [Example 33], the IC50 was 7310 nM. The IC50 values of the last two compounds are within 1.5-fold of each other.
Next, `Cc1cc(Oc2ccnc(Nc3ccc(Cc4nnnn4CC(=O)O)cc3)c2)c(-c2ccccn2)nc1C` [Example 35B]: above 10000 nM; `CCc1nc(C)c(Oc2ccnc(Nc3cccc(C(C)(C)C(=O)O)c3)c2)cc1Cl` [Example 83]: 35 nM; `CCc1nc(C)c(Oc2ccnc(Nc3cccc(CCC(=O)O)c3)c2)cc1Cl` [Example 154]: 16 nM.
Next, `CC(C)(C(=O)O)c1cccc(Nc2cc(Oc3cn(C4CC4)nc3C3CCC3)ccn2)c1` [Example 129]: 29 nM; `Cc1cc(Oc2ccnc(Nc3cccc(CCc4nnn[nH]4)c3F)c2)c(-c2ccccn2)nc1C` [Example 25]: 640 nM; `c1ccc(-c2nn(C3CCC3)cc2Oc2ccnc(Nc3cccc(Cc4nn[nH]n4)c3)c2)cc1` [Example 201]: 89 nM.
Next, `Cc1ccc(Oc2ccnc(Nc3cccc(C(C)(C)C(=O)O)c3)c2)c(-c2cccc(Cl)c2)n1` [Example 78]: 110 nM.
In turn, `CC(C)(C(=O)O)c1ccc(Nc2cc(Oc3cn(C4CC4)nc3C3CCOCC3)ccn2)cc1` [Example 113] gave an IC50 of 510 nM.
As for `Cc1ccc(Oc2ccnc(Nc3cccc(C(C)(C)C(=O)O)c3)c2)c(-c2ccc(Cl)cc2)n1` [Example 79], the 50% inhibitory concentration (IC50) amounted to 180 nM.
The same measure for `Cc1ccc(Oc2ccnc(Nc3cccc(CCC(=O)O)c3F)c2)c(C)n1` [Example 40]: 220 nM; for `Cc1cc(Nc2cc(Oc3cc(Cl)c(C)nc3C)ccn2)cc(C(C)(C)C(=O)O)c1` [Example 157]: 27 nM.
`CCc1nc(C)c(Oc2ccnc(Nc3cc(C)cc(CCc4nn[nH]n4)c3)c2)cc1Cl` [Example 186]: the half-maximal inhibitory concentration (IC50) is 51 nM.
Regarding `CCc1ccc(Oc2ccnc(Nc3cccc(CCC(=O)O)c3)c2)c(C)n1` [Example 146], the IC50 is 21 nM. This IC50 is about 2.4-fold lower than that of the compound before.
The same measure for `Cc1nc2ccccc2cc1Oc1ccnc(Nc2cccc(CCc3nn[nH]n3)c2)c1` [Example 59]: 450 nM.
The same measure for `Cc1cc(CC(C)(C)C(=O)O)cc(Nc2cc(Oc3cc(Cl)c(C)nc3C)ccn2)c1` [Example 158]: 37 nM; for `Cc1nc(-c2ccccc2)c(Oc2ccnc(Nc3cccc(C(C)(C)C(=O)O)c3)c2)cc1C(C)(C)O` [Example 103]: above 10000 nM; for `CCc1ccc(Oc2ccnc(Nc3cc(C)cc(C(C)(C)C(=O)O)c3)c2)c(C)n1` [Example 144]: 75 nM.
In turn, `Cc1cc(CC(C)(C)C(=O)O)cc(Nc2cc(Oc3cn(C4CC4)nc3C3CCOCC3)ccn2)c1` [Example 162] had an IC50 of 120 nM. Compared with the last compound, the IC50 is about 1.6-fold higher.
Next, `Cc1ccc(Oc2ccnc(Nc3cncc(CCC(=O)O)c3)c2)c(C)n1` [Example 38]: above 10000 nM; `Cc1ccc(Oc2ccnc(Nc3cccc(C(C)(C)C(=O)O)c3)c2)c(-c2ccccc2F)n1` [Example 89]: 27 nM.
Next, `c1cc(CCc2nn[nH]n2)cc(Nc2cc(Oc3cn(C4CC4)nc3C3CCOCC3)ccn2)c1` [Example 67, N-(3-(2-(2H-tetrazol-5-yl)ethyl)phenyl)-4-((1-cyclopropyl-3-(tetrahydro-2H-pyran-4-yl)-1H-pyrazol-4-yl)oxy)pyridin-2-amine]: 2650 nM; `Cc1cc(Oc2ccnc(Nc3cc(CCC(=O)O)ccc3F)c2)c(-c2ccccn2)nc1C` [Example 6]: 160 nM.
Next, `CCc1ccc(Oc2ccnc(Nc3cc(C)cc(CC(C)(C)C(=O)O)c3)c2)c(C)n1` [Example 145]: 33 nM; `Cc1cc(CC(C)(C)C(=O)O)cc(Nc2cc(Oc3ccc(C)nc3-c3ccccc3)ccn2)c1` [Example 141]: 12 nM.
For `Cc1ccc(Oc2ccnc(Nc3cccc(CCc4nn[nH]n4)c3F)c2)c(C)n1` [Example 46], half-maximal inhibition (IC50) required 520 nM.
Next, `CCc1nc(-c2ccccn2)c(Oc2ccnc(Nc3cccc(CCc4nn[nH]n4)c3)c2)cc1C` [Example 185]: 39 nM.
Compound `c1cc(Cc2nn[nH]n2)cc(Nc2cc(Oc3cn(C4CC4)nc3C3CCOCC3)ccn2)c1` [Example 193] came in with an IC50 above 10000 nM.
On to `CCc1cc(Oc2ccnc(Nc3cccc(C(C)(C)C(=O)O)c3)c2)c(-c2ccccc2)nc1C` [Example 100], for which the IC50 is 2590 nM.
Next, `CC(C)c1ccc(Oc2ccnc(Nc3cccc(C(C)(C)C(=O)O)c3)c2)c(-c2ccccc2)n1` [Example 107]: 180 nM.
The same measure for `Cc1ccc(CCc2nnn[nH]2)cc1Nc1cc(Oc2cc(C)c(C)nc2-c2ccccn2)ccn1` [Example 30]: 110 nM.
The same measure for `Cc1cc(Oc2ccnc(Nc3cc(CCc4nnn[nH]4)ccn3)c2)c(-c2ccccn2)nc1C` [Example 24]: 4530 nM.
The compound `Cc1ccc(Oc2ccnc(Nc3cccc(CC(C)(C)c4nn[nH]n4)c3)c2)c(-c2ccccc2)n1` [Example 192] yielded an IC50 of 65 nM.
The same measure for `Cc1cc(Nc2cc(Oc3cn(C4CC4)nc3-c3ccccc3)ccn2)cc(C(C)(C)C(=O)O)c1` [Example 169]: 7 nM.
Next, `O=C(O)CCc1cccc(Nc2cc(Oc3cn(C4CC4)nc3C3CCOCC3)ccn2)c1` [Example 68, 3-(3-((4-((1-cyclopropyl-3-(tetrahydro-2H-pyran-4-yl)-1H-pyrazol-4-yl)oxy)pyridin-2-yl)amino)phenyl)propanoic acid]: 740 nM; `CCc1nc(C)c(Oc2ccnc(Nc3cccc(CC(C)(C)C(=O)O)c3)c2)cc1C` [Example 151]: 30 nM.
Next, `Cc1ccc(Oc2ccnc(Nc3cccc(C(C)(C)C(=O)O)c3)c2)c(C2CCOCC2)n1` [Example 108]: 900 nM; `Cc1ccc(Oc2ccnc(Nc3cccc(C(C)(C)C(=O)O)c3)c2)c(-c2ccccn2)n1` [Example 72, 2-methyl-2-(3-((4-((6-methyl-[2,2′-bipyridin]-3-yl)oxy)pyridin-2-yl)amino)phenyl)propanoic acid]: 180 nM; `Cc1ccc(Oc2ccnc(Nc3cccc(CCc4nn[nH]n4)c3)c2)c(-c2cccnc2)n1` [Example 53]: 2950 nM.
`Cc1cc(Cc2nn[nH]n2)cc(Nc2cc(Oc3cn(C4CCC4)nc3-c3ccccc3)ccn2)c1` [Example 202]: inhibition was half-maximal at 120 nM (IC50).
The same measure for `Cc1cc(Oc2ccnc(Nc3cccc(C(C)(C)C(=O)O)c3)c2)c(-c2ccccn2)nc1C` [Example 71, 2-(3-((4-((5,6-dimethyl-[2,2′-bipyridin]-3-yl)oxy)pyridin-2-yl)amino)phenyl)-2-methylpropanoic acid]: 140 nM; for `Cc1ccc(Nc2cc(Oc3cn(C4CC4)nc3C3CCOCC3)ccn2)cc1C(=O)O` [Example 114]: 2540 nM; for `Cc1cc(Oc2ccnc(Nc3cc(CCc4nnn[nH]4)ccc3F)c2)c(-c2ccccn2)nc1C` [Example 19]: 160 nM.
`CC(C)(Cc1cccc(Nc2cc(Oc3cn(C4CC4)nc3-c3ccccc3)ccn2)c1)C(=O)O` [Example 168]: 210 nM corresponded to half-maximal inhibition (IC50). The IC50 values of the last two compounds are within 1.5-fold of each other.
The same measure for `Cc1ccc(Oc2ccnc(Nc3cncc(CCc4nn[nH]n4)c3)c2)c(C)n1` [Example 49]: above 10000 nM; for `Cc1cc(Oc2ccnc(Nc3ccc(CCC(=O)O)cc3)c2)c(-c2ccccn2)nc1C` [Example 2]: 230 nM.
Compound `Cc1ccc(Nc2cc(Oc3cc(C)c(C)nc3-c3ccccn3)ccn2)cc1C(C)(C)C(=O)O` [Example 136] showed an IC50 of 100 nM.
Next, `Cc1ccc(Oc2ccnc(Nc3cc(CCC(=O)O)ccn3)c2)c(C)n1` [Example 42]: 140 nM; `Cc1ccc(Oc2ccnc(Nc3cccc(C(C)(C)C(=O)O)c3)c2)c(-c2cccc(C#N)c2)n1` [Example 96]: 190 nM.
Compound `Cc1cc(Oc2ccnc(Nc3cnn(CCc4nn[nH]n4)c3)c2)c(-c2ccccn2)nc1C` [Example 31] registered an IC50 above 10000 nM.
Next, `Cc1cc(Oc2ccnc(Nc3cncc(CCc4nnn[nH]4)c3)c2)c(-c2ccccn2)nc1C` [Example 23]: above 10000 nM.
On to `Cc1ccc(Oc2ccnc(Nc3cccc(C4(C(=O)O)CC4)c3)c2)c(-c2ccccc2)n1` [Example 77, 1-(3-((4-((6-methyl-2-phenylpyridin-3-yl)oxy)pyridin-2-yl)amino)phenyl)cyclopropane-1-carboxylic acid], for which the concentration for half-maximal inhibition (IC50) came out at 80 nM.
`CC(C)(C(=O)O)c1cccc(Nc2cc(Oc3cn(C4CCC4)nc3C3CCOCC3)ccn2)c1` [Example 118] yielded a 50% inhibitory concentration (IC50) of 310 nM.
Compound `Cc1cc(CC(=O)O)cc(Nc2cc(Oc3cn(C4CC4)nc3C3CCOCC3)ccn2)c1` [Example 164] yielded an IC50 of 1110 nM.
Regarding `O=C(O)Cc1cccc(Nc2cc(Oc3cn(C4CC4)nc3C3CCOCC3)ccn2)c1` [Example 163], half-maximal inhibition (IC50) required 3600 nM.
For `Cc1ccc(Oc2ccnc(Nc3cccc(CCc4nn[nH]n4)c3)c2)c(-c2ccccn2)n1` [Example 55], 200 nM corresponded to half-maximal inhibition (IC50).
The same measure for `CC(C)(C(=O)O)c1cccc(Nc2cc(Oc3cn(C4CC4)nc3C3CCCC3)ccn2)c1` [Example 128]: 22 nM; for `Cc1ccc(Oc2ccnc(Nc3cccc(CC(C)(C)C(=O)O)c3)c2)c(-c2ccccc2)n1` [Example 140]: 35 nM.
